Where two headings read alike, the source gives them in different places.
Legend:
[1] = system: HIV-1 infection of TZM-bl cells; assay: HIV-1 infectivity enhancement assay, β-galactosidase luminescence; format: cell-based; settings: for Absolute Infectivity / RLU /s (Feb2021): unrounded values of the 1.3 µM column; for Log10 Inf. rel. to EF-C: log10 of HIV-1 infection of TZM-bl cells relative to EF-C, Fig S15 source data; for Log10 Infection Rel EF-C: HIV-1 infection of TZM-bl cells
[2] = format: physicochemical; set-up: key to Fibril / Fibril Formation / TEM 2cat / Fibril: 1 = fibrils present; 0 non-fibrillar structures
[3] = Turbidity, derived count rate of scattered light; format: physicochemical; settings: for Zeta Count Rate / kcps: mean; for Log Count Rate: log of derived count rate
Summary of the method: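 Samples: 1 mg/mL in PBS pH 7.4 (from DMSO), 1 d at RT, then diluted in 1 mM KCl immediately before measurement. Triplicates, two independent runs averaged.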

[4] = Feb2021, 1.3 µM value relative to virus only (0 µM)
[5] = Feb2021, Log10 of infectivity relative to EF-C
[6] = Feb2021, n-fold enhancement relative to EF-C
[7] = Feb2021, n-fold infectivity relative to EF-C
[8] = infectivity class (low / medium / high) of each library peptide, main list in c1-c6, same classes repeated in sub-lists of sequences containing the hydrophobicity/charge patterns P+,H0,P+,H0,P0,H0,P0, P+,H0,P0,H0,P0,H0,P0, P+,H0,P0,H0
[9] = infectivity class (low / medium / high) of the peptide in the sequence-pattern analysis, Fig. S22-A4, class limits not given
[10] = category 1 or 0 from count rate, key not given
[11] = derived count rate of scattered light, std deviation in next column
[12] = infectivity enhancement relative to EF-C (=1), Feb2021 run
[13] = infectivity n-fold relative to virus only, Feb2021 run
[14] = log10 of infectivity relative to EF-C, Feb2021 run
[15] = derived count rate from zeta measurement
[16] = Feb2021, log10 of infectivity relative to EF-C

Substance | n-fold to virus (Feb2021) [1, 4] | Log10 of Rel to EFC (Feb2021) [1, 5] | Rel-to EFC (Feb-2021) [1, 6] | Rel-to EFC (Feb-2021) [1, 7] | Absolute Infectivity / RLU /s (Feb2021) ([1]; Feb2021) | infectivity [1, 8] | Log10 Inf. rel. to EF-C ([1]; asymmetric std dev errors) | TEM: 1= fibrils, 0= aggregates (micelle), 0.5 = aggregates and fibrils, -1 = nothing obersved, STD prep [2] | Zeta Count Rate Category ([3]; category 1/0, no key printed) | Zeta Count Rate Category [3, 10] | Zeta Count Rate / kcps [3, 11] | Log10 of Rel to EFC (Feb2021) [1, 16] | also measured
CKFKFQFNMWQ [BL2] | 48.74 | 0.06446 | 1.16 | 1.16 | 26320 RLU /s | high | 0.06446 | 1 | 1 | 1 | 142.5 kcps | – | n-fold to virus (Feb2021) ([1]; Feb2021 run, infectivity n-fold relative to virus alone): 48.74; Log10 of Rel to EFC (Feb2021) ([1]; Feb2021 run, log10 of infectivity relative to EF-C): 0.06446; Rel-to EFC (Feb-2021) ([1]; Feb2021 run, n-fold infectivity relative to EF-C): 1.16; infectivity [1, 9]: high; Zeta Count Rate / kcps ([3]; derived count rate of scattered light, std deviation in separate column): 142.5 kcps
KIKQIINM [JGA2] | – | -0.3458 | 0.451 | – | – | medium | -0.3458 | 1 | – | 1 | 2481 kcps | – | Rel-to EFC (Feb-2021) [1, 12]: 0.451; n-fold to virus (Feb2021) [1, 13]: 18.95; Log10 of Rel to EFC (Feb2021) [1, 14]: -0.3458; Zeta Count Rate / kcps [3, 15]: 2481 kcps; Zeta Count Rate Category ([3]; key not given): 1
CSISIQINM [TM145] | 8.332 | – | – | 0.1983 | 10943.33333 RLU /s | medium | -0.7027 | 0.5 | 1 | – | 3291 kcps | -0.7027 | –
KLKQLL | – | – | – | – | – | – | – | – | – | – | – | – | Rel-EFC ([1]; 1.3 µM peptide, infection relative to EF-C (QCKIKQIINMWQ = 1)): 0,01; Log10 Infection Rel EFC ([1]; 1.3 µM peptide, log10 of infection relative to EF-C): -2,13; Log Infectivity ([1]; Fig. S7 panel A (plotted against β-sheet content), Log10 infection relative to EF-C, TZM-bl cells, asymmetric std dev errors): -2.131; Log10 Infection Rel EF-C ([1]; Log10 of infection rate relative to EF-C, Figure 3A source data): -2.13; Log10 Infection Rel EF-C ([1]; infection rate relative to EF-C, log10, data of Figure 2D): -2.131; Log10 Infection Rel EF-C ([1]; infection rate relative to EF-C, log10, source data of Figure 2C): -2.131; TEM 2cat ([2]; Fig S10 panel D): 0; TEM 2cat ([2]; FigS12 panel A, fibril category by TEM): 0; Fibril ([2]; FigS12 panel B, TEM): 0; Fibril / Fibril Formation ([2]; TEM, 1 mg/mL, uranyl acetate stain, qualitative): 0; Fibril ([2]; TEM, 1 = fibrils present, 0 = non-fibrillar): 0; Fibril ([2]; TEM, 1 = fibrils present, 0 = non-fibrillar structures): 0; Log10 Count Rate ([3]; Log10 of derived count rate of scattered light (turbidity)): 2.505; Count Rate / kcps ([3]; derived count rate of scattered light at 633 nm, 173°, from zeta-potential measurement, 0.1 mg/mL in 1 mM KCl after 1 d at 1 mg/mL in PBS, turbidity / microscopic aggregation, mean of triplicate): 320 kcps; Log10 Count Rate ([3]; log10 of derived count rate of scattered light (turbidity)): 2.505; Log10 Count Rate ([3]; turbidity, Log10 of derived count rate of scattered light, Figure 3A source data): 2.505
CKWKWQW [KB4] | 10.67 | – | – | 0.254 | 6760 RLU /s | medium | -0.5951 | 0 | 1 | – | 7511 kcps | -0.5951 | Rel-to EFC ([1]; Fig S8 panels B, D, infectivity enhancement relative to EF-C): 0.254; n-fold to virus ([1]; Fig S8 panels B, D, infectivity n-fold relative to virus alone): 10.67; Log Count Rate ([3]; Fig S8 panels A, C, asymmetric log errors): 3.876; Log Count Rate ([3]; Fig S8 panels B, D): 3.876; Count Rate ([3]; Fig S8 panels B, D, turbidity, derived count rate of scattered light): 7511.27
KIKIKIQINMWQ [VH9] | – | -0.1048 | 0.7855 | – | – | high | -0.1048 | – | – | 1 | 1603.1 kcps | – | infectivity [1, 9]: high
CEIEIQINMWQ [TM143] | 9.188 | – | – | 0.2187 | 12066.66667 RLU /s | medium | -0.6602 | 0.5 | 1 | – | 1570 kcps | -0.6602 | Rel-to EFC (Feb-2021) [1, 12]: 0.2187; n-fold to virus (Feb2021) [1, 13]: 9.188; Log10 of Rel to EFC (Feb2021) [1, 14]: -0.6602; Zeta Count Rate / kcps [3, 15]: 1570 kcps; Zeta Count Rate Category ([3]; key not given): 1

Reference: publication PMC10447463, “Data-mining unveils structure–property–activity correlation of viral infectivity enhancing self-assembling peptides” (Nature Communications, 2023)
